Legend:
[1] = target: recombinant human SOS1 polypeptide (amino acids 560-1049) (Homo sapiens (Human), UniProt Q07889); assay: biochemical; assay type: binding; conditions: HTRF displacement, Cy5 labelled tracer, Morrison equation for competitive binding; read-out: Ki, Inhibition of Labeled Tracer Binding to SOS1
pERK in MKN1 cells = assay: cells; assay type: cell-based; conditions: Homo sapiens, MKN-1, pERK inhibition, In-Cell Western; MKN1 or H358 cells (Table 24 does not say which); 0.5-1 hour incubation; read-out: IC50
Experimental: The cells were incubated for approximately 0.5-1 hour with the compounds solubilized in DMSO at 37° C. Cells were immediately fixed by adding 50 μL of 4% formaldehyde to all wells in a fume hood and the plates were incubated for 20 minutes at room temperature. The formaldehyde was discarded from the plates and 150 μL of ice-cold methanol was added to permeabilize the cells for 10 minutes at −20° C. The methanol was discarded from each of the plates and any liquid remaining in the plate by tapping the plate against paper towels. […] The plates were incubated overnight at 4° C. on a shaker.
On Assay day 2, the primary antibody solution was removed. […] The secondary antibody solution as removed and each plate was washed with PBST 3× times. Any liquid remaining was discarded and the plate was imaged using the Licor Odyssey machine according to the manufacturer's instruction, using a set focus length at 3 mm and both 800 nm and 700 nm filters. The GAPDH normalized scan values for each well were divided by the average of vehicle wells to get the % of pERK inhibition. The IC50 values were then calculated with the Graph pad Prism software.

Sequence of recombinant human SOS1 polypeptide (amino acids 560-1049) (Q07889 560-1049): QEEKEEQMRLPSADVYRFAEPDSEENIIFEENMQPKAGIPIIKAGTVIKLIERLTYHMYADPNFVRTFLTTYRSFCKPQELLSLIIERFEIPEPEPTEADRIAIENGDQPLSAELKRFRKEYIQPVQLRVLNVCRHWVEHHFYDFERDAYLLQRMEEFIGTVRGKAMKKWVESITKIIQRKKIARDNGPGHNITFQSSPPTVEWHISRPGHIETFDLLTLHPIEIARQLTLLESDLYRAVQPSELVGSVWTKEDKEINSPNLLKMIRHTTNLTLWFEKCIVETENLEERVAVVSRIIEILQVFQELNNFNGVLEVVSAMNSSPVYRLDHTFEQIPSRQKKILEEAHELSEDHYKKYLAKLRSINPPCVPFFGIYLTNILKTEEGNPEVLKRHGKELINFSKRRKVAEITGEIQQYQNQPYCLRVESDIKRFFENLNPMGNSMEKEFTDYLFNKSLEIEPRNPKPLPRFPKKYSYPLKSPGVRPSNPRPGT

| SMILES | Ki [1] [nM] | IC50 (pERK in MKN1 cells) [nM] |
| --- | --- | --- |
| CCc1ccc2c(C)nnc(N[C@H](C)c3ccc(-c4ccccc4CNC)s3)c2c1 [8-2, (R)-7-ethyl-4-methyl-N-(1-(5-(2-((methylamino)methyl)phenyl)thiophen-2-yl)ethyl)phthalazin-1-amine] | 3.74 | 605 |
| Cc1c([C@@H](C)Nc2nncc3ccc(N4CCn5ncnc5C4)cc23)cccc1C(F)(F)F [Example 1-25, (R)-7-(5,6-dihydro-[1,2,4]triazolo[1,5-a]pyrazin-7(8H)-yl)-N-(1-(2-methyl-3-(trifluoromethyl)phenyl)ethyl)phthalazin-1-amine] | 0.95 | 47 |
| Cc1c([C@@H](C)Nc2nncc3ccc(N4CC(=O)N(C)CC4C)cc23)cccc1C(F)(F)F (stereo partly drawn) [Example 1-26, 1,5-dimethyl-4-(4-(((R)-1-(2-methyl-3-(trifluoromethyl)phenyl)ethyl)amino)phthalazin-6-yl)piperazin-2-one] | 1.16 | 57 |
| Cc1nc2n(c1C)CCN(c1ccc3cnnc(N[C@H](C)c4cccc(C(F)(F)F)c4C)c3c1)C2 [Example 1-28, (R)-7-(2,3-dimethyl-5,6-dihydroimidazo[1,2-a]pyrazin-7(8H)-yl)-N-(1-(2-methyl-3-(trifluoromethyl)phenyl)ethyl)phthalazin-1-amine] | 0.17 | 61 |
| Cc1c([C@@H](C)Nc2nncc3ccc(N4CC5(CC(N(C)C)C5)C4)cc23)cccc1C(F)(F)F [Example 1-32, (R)-7-(6-(dimethylamino)-2-azaspiro[3.3]heptan-2-yl)-N-(1-(2-methyl-3-(trifluoromethyl)phenyl)ethyl)phthalazin-1-amine] | 0.42 | 101 |
| Cc1c([C@@H](C)Nc2nncc3ccc(N4CCC5CCN(C)C5C4)cc23)cccc1C(F)(F)F (stereo partly drawn) [Example 1-33, N-((R)-1-(2-methyl-3-(trifluoromethyl)phenyl)ethyl)-7-(1-methyloctahydro-6H-pyrrolo[2,3-c]pyridin-6-yl)phthalazin-1-amine] | 0.7 | 109 |
| Cc1c([C@@H](C)Nc2nncc3ccc(N4CCn5c(cnc5C)C4)cc23)cccc1C(F)(F)F [Example 1-37, (R)-N-(1-(2-methyl-3-(trifluoromethyl)phenyl)ethyl)-7-(3-methyl-5,6-dihydroimidazo[1,5-a]pyrazin-7(8H)-yl)phthalazin-1-amine] | 0.25 | 131 |
| Cc1c([C@@H](C)Nc2nncc3ccc(N4CCC5C4CCCN5C)cc23)cccc1C(F)(F)F (stereo partly drawn) [Example 1-38, N-((R)-1-(2-methyl-3-(trifluoromethyl)phenyl)ethyl)-7-(4-methyloctahydro-1H-pyrrolo[3,2-b]pyridin-1-yl)phthalazin-1-amine] | 0.5 | 136 |
| Cc1cn2c(n1)CN(c1ccc3cnnc(N[C@H](C)c4cccc(C(F)(F)F)c4C)c3c1)CC2 [Example 1-40, (R)-N-(1-(2-methyl-3-(trifluoromethyl)phenyl)ethyl)-7-(2-methyl-5,6-dihydroimidazo[1,2-a]pyrazin-7(8H)-yl)phthalazin-1-amine] | 0.27 | 171 |
| Cc1c([C@@H](C)Nc2nncc3ccc(N4CCN(C)C(CF)C4)cc23)cccc1C(F)(F)F (stereo partly drawn) [Example 1-43, 7-(3-(fluoromethyl)-4-methylpiperazin-1-yl)-N-((R)-1-(2-methyl-3-(trifluoromethyl)phenyl)ethyl)phthalazin-1-amine] | 1.36 | 216 |
| Cc1cn2c(n1)C(C)N(c1ccc3cnnc(N[C@H](C)c4cccc(C(F)(F)F)c4C)c3c1)CC2 (stereo partly drawn) [Example 1-44, 7-(2,8-dimethyl-5,6-dihydroimidazo[1,2-a]pyrazin-7(8H)-yl)-N-((R)-1-(2-methyl-3-(trifluoromethyl)phenyl)ethyl)phthalazin-1-amine] | 0.42 | 235 |
| Cc1c([C@@H](C)Nc2nncc3ccc(N4CCn5cc(C(F)(F)F)nc5C4C)cc23)cccc1C(F)(F)F (stereo partly drawn) [Example 1-47, 7-(8-methyl-2-(trifluoromethyl)-5,6-dihydroimidazo[1,2-a]pyrazin-7(8H)-yl)-N-((R)-1-(2-methyl-3-(trifluoromethyl)phenyl)ethyl)phthalazin-1-amine] | 2.08 | 349 |
| Cc1c([C@@H](C)Nc2nncc3ccc(N4CCn5cncc5C4)cc23)cccc1C(F)(F)F [Example 1-48, (R)-7-(5,6-dihydroimidazo[1,5-a]pyrazin-7(8H)-yl)-N-(1-(2-methyl-3-(trifluoromethyl)phenyl)ethyl)phthalazin-1-amine] | 0.56 | 364 |
| Cc1c([C@@H](C)Nc2nncc3ccc(OC4CCN(C)C4(C)C)cc23)cccc1C(F)(F)F (stereo partly drawn) [Example 2-5, N-((R)-1-(2-methyl-3-(trifluoromethyl)phenyl)ethyl)-7-((1,2,2-trimethylpyrrolidin-3-yl)oxy)phthalazin-1-amine] | 1.78 | 82 |
| Cc1c([C@@H](C)Nc2nncc3ccc(OC4CCN(C)CC4)cc23)cccc1C(F)(F)F [Example 2-6, (R)-N-(1-(2-methyl-3-(trifluoromethyl)phenyl)ethyl)-7-((1-methylpiperidin-4-yl)oxy)phthalazin-1-amine] | 2.1 | 83 |
| Cc1c([C@@H](C)Nc2nncc3ccc(O[C@H]4C[C@H](N(C)C)C4)cc23)cccc1C(F)(F)F [Example 2-8, 7-((trans)-3-(dimethylamino)cyclobutoxy)-N-((R)-1-(2-methyl-3-(trifluoromethyl)phenyl)ethyl)phthalazin-1-amine] | 2.99 | 148 |
| Cc1c([C@@H](C)Nc2nncc3ccc(O[C@H]4CC[C@H](N(C)C)C4)cc23)cccc1C(F)(F)F [Example 2-11, 7-(((trans)-3-(dimethylamino)cyclopentyl)oxy)-N-((R)-1-(2-methyl-3-(trifluoromethyl)phenyl)ethyl)phthalazin-1-amine] | 2.83 | 243 |
| Cc1c([C@@H](C)Nc2nncc3ccc(OC4CCN5CCCC5C4)cc23)cccc1C(F)(F)F (stereo partly drawn) [Example 2-12, N-((R)-1-(2-methyl-3-(trifluoromethyl)phenyl)ethyl)-7-((octahydroindolizin-7-yl)oxy)phthalazin-1-amine] | 5.75 | 304 |
| COc1cc2c(N[C@H](C)c3ccc(-c4ccccc4CN(C)C)s3)nnc(C(F)(F)F)c2cc1OC [Example 5-4, (R)—N-(1-(5-(2-((dimethylamino)methyl)phenyl)thiophen-2-yl)ethyl)-6,7-dimethoxy-4-(trifluoromethyl)phthalazin-1-amine] | 47.9 | 1620 |
| Cc1c([C@@H](C)Nc2nnc(C)c3ccc(N4CCN(C)CC4)cc23)cccc1C(F)(F)F [Example 6-1, (R)-4-methyl-N-(1-(2-methyl-3-(trifluoromethyl)phenyl)ethyl)-7-(4-methylpiperazin-1-yl)phthalazin-1-amine] | 0.11 | 79 |
| CNCc1ccccc1-c1ccc([C@@H](C)Nc2nnc(C)c3cnc(N4CCOCC4)cc23)s1 [Example 6-2, (R)-4-methyl-N-(1-(5-(2-((methylamino)methyl)phenyl)thiophen-2-yl)ethyl)-7-morpholinopyrido[3,4-d]pyridazin-1-amine] | 1.35 | 100 |
